Laboratory results taken from patent publication US10196604B2, “Mitochondrial inhibitors for use in culturing pluripotent stem cells” (The Board of Trustees of the Leland Stanford Junior …, priority 2014, dated 2019).

Columns and labels:
[1] = Solubility in the culture media; format: physicochemical; conditions: hES cell culture media
Source text: Compound 2 was not soluble in the culture media and was not tested further.

SURVIVIN = test: qRT-PCR gene expression in hES cells: SURVIVIN; format: cell-based; conditions: Homo sapiens, 72 hours, normalized to β-ACTIN, read-out: Expression relative to control, SURVIVIN; for fold induction at 1000 µM: 1 mM
Description: (§1) Total cellular RNA was extracted from cells using TRIzol (Invitrogen) and DNase treated with the DNA-free kit (Ambion, Austin, Tex., http (colon slash slash) www (dot) ambion.com) following manufacturer's directions for stringent conditions. RNA was dialyzed for 30 minutes against milliqwater, 10 mM Tris and 1 mM EDTA adjusted to pH 7.5 with HCL (all from Fisher). cDNA was synthesized using GeneAmp RNA PCR kit from Applied Biosciences (Fisher) and no-RT reactions were performed without reverse transcriptase and RNase inhibitor enzymes. One microgram of RNA was used, following manufacturer's directions. Quantitative real time polymerase chain reaction (qPCR) was performed to determine relative mRNA expression levels. Expression fold changes were calculated using the ΔΔCt method and normalized using the housekeeping gene, β-ACTIN as an internal control. Taqman master mix and gene assays with water only were used as a negative control. mRNA expression assays were analyzed in a triplicate PCR reaction with no-RT negative controls and each experiment was performed at least three independent times. Primers for OCT4 and NANOG were selected from predeveloped Applied Biosystems TaqMan Assays, which are pre-designed qPCR primers and TaqMan MGB probes; Oct-4 (Hs01895061_u1) and Nanog (Hs02387400_g1) were selected. Primers for SURVIVIN were: […]
(§2) Based on the toxicity results, nine of the above twelve compounds in Example 1 were selected for further screening to assess their effects on the expression of OCT4, NANOG and SURVIVIN in human embryonic stem cells. The results are summarized in Table 2, along with the mitochondrial inhibition activities for these compounds which were disclosed in US20110301180A1 to Collman et al. the content of which has been incorporated herein by reference.
(§3) The pluripotency of these cultured human embryonic stem cells were characterized by the marker gene expression as analyzed by Quantitative Reverse Transcriptase PCR (qRT-PCR). All compounds were tested at 1 mM concentration for 72 hours except for compound 1 which was tested at 10 μM. The reversibility of mitochondrial inhibition is presented in the right column.

OCT4 = test: qRT-PCR gene expression in hES cells: OCT4; format: cell-based, human; conditions: 72 hours
Description: as §1, §2, §3

NANOG [2] = test: qRT-PCR gene expression in hES cells: NANOG; format: cell-based; conditions: Homo sapiens, 72 hours, normalized to β-ACTIN, read-out: Expression relative to control, NANOG; for fold induction at 1000 µM: 1 mM
Description: as §1, §2, §3

SURVIVIN, OCT4 and NANOG = test: qRT-PCR of the three probed genes together (SURVIVIN, OCT4, NANOG) in hES cells; format: cell-based, human; conditions: 72 hours
Description: as §1, §2, §3

[3] = system: mitochondrial respiration; conditions: cited from earlier work; for mitochondrial inhibition IC50: values from US 20110301180; for Inhibition/Reversibility in mitochondrial inhibition: disclosed in US20110301180A1
[4] = system: human embryonic stem cells; test: Toxicity testing of mitochondrial inhibitors on hES cells (72 hr culture, crystal violet staining); conditions: for nontoxic concentration (no toxicity up to): tested from 0.1 mM to 50 mM
Description: Human ES cells, WA09 (WiCell Research Institute, Madison, Wis.) were cultured on dishes coated for at least two hours with Matrigel (BD Biosciences, Franklin Lakes, N.J.). hES cell media containing 80% knockout Dulbecco's modified eagle medium (DMEM), 20% knockout serum replacer, 1% nonessential amino acids, 1% penicillin/streptomycin (100 U per 100 μg/ml), 2 mM L-glutamine, (all from Invitrogen, Carlsbad, Calif.) and 4 ng/ml basic fibroblast growth factor (bFGF, ReproCELL, San Jose, Calif.) was pre-conditioned by culture with inactivated mouse embryonic fibroblasts (MEF; Millipore, Billerica, Mass.) and collected every two days. hES cell lines were cultured with human conditioned media (HuCM) supplemented with 4 ng/ml bFGF and a heterocyclic compound of a certain concentration. hES cells were maintained by weekly manual passaging or bulk passaging using 1 mg/ml Collagenase IV (Invitrogen). hES cells were plated for experiments using Accutase (Fisher, Pittsburgh, Pa.) and plated at a density of 26,000 cells/cm^2.
Toxicity Testing hES cells were plated as above and subjected to increasing concentrations of the mitochondrial inhibitors for 72 hr of culture. After 72 hr the cells were fixed in 2.0% formaldehyde and stained for 30 min with 0.05% crystal violet in distilled water. Stained cells were rinsed twice with distilled water and imaged using bright field microscopy.
These compounds were initially tested at concentrations from 0.1 mM to 50 mM.

NANOG [5] = conditions: human embryonic stem cells; cited from earlier work
[6] = Homo sapiens, 1 mM, normalized to β-ACTIN, read-out: Expression relative to control, OCT4

Structure (SMILES) | fold induction at 1000 µM (SURVIVIN) | fold induction at 1000 µM (OCT4; [6]) | fold induction at 1000 µM (NANOG [2]) | One of the genes overexpressed by at least 10% (SURVIVIN, OCT4 and NANOG; 1 mM) | change in expression of SURVIVIN, OCT4 and NANOG following treatment (FIG. 2) (SURVIVIN, OCT4 and NANOG; 1 mM) | mitochondrial inhibition IC50 [3] [mg/mL] | Inhibition/Reversibility in mitochondrial inhibition [3] | other results
c1ccc(CSc2nnn[nH]2)cc1 [Compound 2, 5-benzylsulfanyl-1H-tetrazole] |  |  |  |  |  |  |  | solubility in the culture media [1]: not soluble
CCOC(=O)Cc1nnn[nH]1 [Compound 6, ethyl 2-(1H-tetrazol-5-yl)acetate] | 1.75 | 1.34 | 0.867 | Yes | increased expression of SURVIVIN and OCT4 but not NANOG | 100 |  | 
Cc1cncs1 [Compound 4, 5-methylthiazole] | 1.27 | 1.13 | 1.14 | Yes | increased expression of all three genes | 23.5 | reversible mitochondrial inhibitors and Yes | nontoxic concentration (no toxicity up to) [4]: ≤ 10 mM
Brc1nn[nH]c1Br [Compound 9, 4,5-dibromo-1H-triazole] |  |  |  |  |  |  |  | toxicity at 1 mM ([4]; 1 mM): minimal toxicity; nontoxic concentration (no toxicity up to) [4]: up to 0.1 mM
O=C(O)Cc1nnn[nH]1 [Compound 11, 2-(1H-tetrazol-5-yl)acetic acid] | 0.975 | 1.07 | 0.849 | No | increase in OCT4 and no other genes |  |  | 
CSc1nnn[nH]1 [Compound 12, 5-methylsulfanyl-1H-tetrazole] | 1.05 | 1.16 | 0.844 | Yes | increased expression of SURVIVIN and OCT4 but not NANOG | 14.5 | reversible mitochondrial inhibitors and Yes | 
O=C(O)CCCC[C@H]1CCSS1 (single isomer, unassigned) [Compound 3, 5-[(3R or 3S)-dithiolan-3-yl]pentanoic acid] | 1.11 | 1.85 | 0.717 | Yes | increased expression of SURVIVIN and OCT4 but not NANOG | 37.1 |  | 
Cc1ncsc1CCOC(=O)C[P+](c1ccccc1)(c1ccccc1)c1ccccc1.[Br-] [Compound 1, [2-[2-(4-methylthiazol-5-yl)ethoxy]-2-oxo-ethyl]-triphenyl-phosphonium bromide] |  |  |  |  |  | 8.8 | No | fold induction at 10 µM (SURVIVIN; 10 μM): 0.892; fold induction at 10 µM (OCT4; Homo sapiens, 10 μM, normalized to β-ACTIN, read-out: Expression relative to control, OCT4): 0.9; fold induction at 10 µM (NANOG [2]; 10 μM): 0.902; One of the genes overexpressed by at least 10% (SURVIVIN, OCT4 and NANOG; 10 μM): No; change in expression of SURVIVIN, OCT4 and NANOG following treatment (FIG. 2) (SURVIVIN, OCT4 and NANOG; 10 μM): decreased expression of all three genes; toxicity at the initially tested concentrations ([4]; initial range 0.1 mM to 50 mM): toxic at all concentrations tested initially; nontoxic / well tolerated concentration (up to) ([4]; retested at 0.1 to 100 μM): up to 10 μM
CCCCCC[C@H]1C(=O)O[C@H](C)[C@H](NC(=O)c2cccc(NC=O)c2O)C(=O)O[C@@H](C)[C@@H]1OC(=O)CC(C)C [Antimycin A, [(2R,3S,6S,7R,8R)-3-[(3-formamido-2-hydroxybenzoyl)amino]-8-hexyl-2,6-dimethyl-4,9-dioxo-1,5-dioxonan-7-yl] 3-methylbutanoate] |  |  |  |  |  |  |  | effect on expression of pluripotency factor NANOG (NANOG [5]): increase in the expression of pluripotency factor NANOG
Nc1nnn[nH]1 [Compound 7, 1H-tetrazol-5-amine] | 1.73 | 1.53 | 0.917 | Yes | increased expression of SURVIVIN and OCT4 but not NANOG | 8.5 | reversible mitochondrial inhibitors and Yes | OCT4 overexpression (OCT4; 1 mM, vs control): at least 50%
Cc1nnn[nH]1 [Compound 10, 5-methyl-1H-tetrazole] | 0.981 | 0.977 | 0.778 | No | decreased expression of all three genes |  |  | 
Cn1c(-c2ccccc2)cnc1S [Compound 5, 3-methyl-4-phenyl-1H-imidazole-2-thione] | 1.44 | 1.5 | 1.16 | Yes | increased expression of all three genes | 5.4 |  | nontoxic concentration (no toxicity up to) [4]: at least 5 mM
